Data: paper PMC11239005, “Preclinical studies of RA475, a guanidine-substituted spirocyclic candidate RPN13/ADRM1 inhibitor for treatment of ovarian cancer” (PLOS ONE, 2024)
“And” between values parts separate entries of the source, which are not always exact repeats. Identical values can stand only once. Like-named read-outs stand apart in the source and are kept apart here.

Assays:
[1] = LogD measurement, shake-flask octanol/PBS pH 7.4; format: physicochemical; details: for D: octanol/PBS pH 7.4, single injections 1-3; for LogD, pH 7.4: single injections 1-3
Description: Incubations were carried out in Eppendorf-type polypropylene microtubes in triplicates. A 2.5 μL aliquot of 20 mM DMSO stock of a test compound was added into the previously mutually saturated mixture containing 500 μL of PBS (pH 7.4) and 500 μL of octanol. The solution was allowed to mix in a rotator for 1 hour at 30 rpm. Phase separation was assured by centrifugation for 2 min at 6000 rpm. The octanol phase was diluted 100-fold with 40% acetonitrile, and the aqueous phase (PBS buffer) was diluted 10-fold. The samples (both phases) were analyzed using an HPLC system coupled with a tandem mass spectrometer. […] Calculations of the partition ratios were carried out using the equation below. D=do.So/dp.Sp where:
So–peak area of the analyte in octanol phase
SP–peak area of the analyte in PBS buffer
do–dilution coefficient for octanol phase

Calu-1 = test: MTT cytotoxicity assay, Calu-1; format: cell-based; details: Homo sapiens, Calu-1, 72 h
Description: (§1) All cell lines were obtained from the American Type Culture Collection (ATCC) and cultured in the specified medium supplemented with 10% fetal bovine serum, 100 IU/mL penicillin, and 100 μg/mL streptomycin at 37°C in a humidified 5% CO2/95% air incubator. Synthesis of new compounds is described in S1 File, and >95% purity of RA475, Up284 and its analogs were confirmed by NMR and MS. To assess drug cytotoxicity, cells were seeded at 2,500 cells/well (10,000 cells/well for MM lines) in 100 μL medium in 96-well plate as triplicates and after 24 h treated with compounds for a further 72 h. To assess cytotoxicity, the cells were incubated for 2 h at 37°C according to the manufacturer’s protocol with the Thiazolyl Blue Tetrazolium Bromide (20 μL/well of 5 mg/mL stock solution in water) (Sigma, M5655) and A570 measured using a Benchmark Plus microplate spectrophotometer (BIO-RAD). IC50 was estimated using Graphpad Prism 7 software.

PEA2 = test: MTT cytotoxicity assay, PEA2; format: cell-based; details: Homo sapiens
Description: as §1
Modifications of Up284 were sought to improve its drug-like properties without significant compromise of its activity in vivo, and several new compounds were synthesized (S1 File). Based on our prior studies of its pharmacophore, the central ring nitrogen was the most logical for addition of charged moieties, including RA475 and RA484. We also examined a change to either 3,4 spiro rings (RA477, RA479), or addition of 3-Fluoro substitutions (RA482) (S1 File). Our focus is developing iRPN13 to treat ovarian cancer resistant to standard of care drug regimens.

SKOV3 = test: MTT cytotoxicity assay, SKOV3; format: cell-based; details: Homo sapiens, SK-OV-3, SKOV3, 72 h
Description: as §1

HT29 = test: MTT cytotoxicity assay, HT29; format: cell-based; details: Homo sapiens, HT-29, HT29, 72 h
Description: as §1

SUM149 = test: MTT cytotoxicity assay, SUM149; format: cell-based; details: SUM149, 72 h
Description: as §1

GSH reactivity assay = format: physicochemical; details: for Average Area Ratio Normalized: with GSH divided by without GSH; for remaining at 1.5 h, 20 μM: pH 7.4
Description: Test compounds (20 μM, final organic solvent concentration 10%) were incubated with 1 mM GSH in phosphate buffer (100 mM), pH 7.4 at 37°C, shaking at 300 rpm. In the control reactions (“without GSH”), the GSH was substituted with phosphate buffer. Five time points over 1.5 h were analyzed (0, 0.33, 0.66, 1 and 1.5 h). The reactions were stopped by adding 50 μL aliquots of the reaction mixture to 9 volumes of methanol: water: formic acid (10:10:0.04) with internal standard (IS). Samples were analyzed using HPLC system coupled with a tandem mass spectrometer. Average (triplicate) area ratios were calculated. GSH reactivity was calculated taking into account the possible instability of the compound during incubation. All calculations were performed using normalized data obtained by dividing the average area ratio of the test compound incubated with GSH by the average area ratio of the test compound incubated without GSH. Natural logarithms of the results were fitted to linear regression, and half-life (t1/2) was calculated as: t1/2=ln2/-slope

PEO23 = test: MTT cytotoxicity assay, PEO23; format: cell-based; details: PEO23, 72 h
Description: as §1

[2] = 0 h, 1 mM GSH, 20 μM compound, pH 7.4, 37°C
[3] = 1 mM GSH in phosphate buffer, 1.5 h, read-out: % Remaining with GSH, normalized
[4] = 1 mM GSH in phosphate buffer, 1 mM GSH, pH 7.4, 37°C, read-out: t1/2 with GSH, normalized (converted)
[5] = phosphate buffer, pH 7.4, 37°C, read-out: t1/2 w/o GSH
[6] = phosphate buffer, 1.5 h, read-out: % Remaining w/o GSH

| SMILES | D [1] | LogD, pH 7.4 [1] | IC50 (Calu-1) [µM] | IC50 (SKOV3) [µM] | IC50 (HT29) [µM] | IC50 (SUM149) [µM] | time within which compound reacted with GSH (GSH reactivity assay) [min] | Average Area Ratio with GSH (GSH reactivity assay; [2]) | Average Area Ratio without GSH (GSH reactivity assay; 0 h, phosphate buffer) | Average Area Ratio Normalized (GSH reactivity assay; 0 h) | remaining at 1.5 h, 20 μM (GSH reactivity assay; [3]) [%] | half-life at 20 μM (GSH reactivity assay; [4]) [min] | Average Area Ratio with GSH (GSH reactivity assay; 0.33 h, 1 mM GSH) | Average Area Ratio without GSH (GSH reactivity assay; 0.33 h, phosphate buffer) | Average Area Ratio Normalized (GSH reactivity assay; 0.33 h) | Average Area Ratio with GSH (GSH reactivity assay; 0.66 h, 1 mM GSH) | Average Area Ratio without GSH (GSH reactivity assay; 0.66 h, phosphate buffer) | Average Area Ratio Normalized (GSH reactivity assay; 0.66 h) | Average Area Ratio with GSH (GSH reactivity assay; 1 h, 1 mM GSH) | Average Area Ratio without GSH (GSH reactivity assay; 1 h, phosphate buffer) | also measured |
| --- | --- | --- | --- | --- | --- | --- | --- | --- | --- | --- | --- | --- | --- | --- | --- | --- | --- | --- | --- | --- | --- |
| Cl.Cl.N#Cc1ccc(/C=C2/C(=O)/C(=C/c3ccc(C#N)cc3)C23CCN(C(=N)N)CC3)cc1 [RA475, 1,3-bis((E)-4-cyanobenzylidene)-2-oxo-7-azaspiro[3.5]nonane-7-carboximidamide dihydrochloride] | 3.84E+01 and 4.27E+01 and 3.16E+01 | 1.631 and 1.5 | 0.241 | 0.294 | 0.401 | 0.1 | ≤ 30 | 1.00E+02 | 1.00E+02 | 9.10E+01 | 8 | 12.2 | 2.00E+01 | 9.44E+01 | 1.93E+01 | 1.02E+01 | 9.60E+01 | 9.62E+00 | 8.18E+00 | 9.22E+01 | logD ([1]; pH 7.4, mean of three injections): 1.58; logD ([1]; pH 7.4, single injections 1-3): 1.58; IC50 (PEA2; 72 h): 0.356 µM; Average Area Ratio Normalized (GSH reactivity assay; 1 h): 8.07E+00; Average Area Ratio with GSH (GSH reactivity assay; 1.5 h, 1 mM GSH): 7.92E+00; Average Area Ratio without GSH (GSH reactivity assay; 1.5 h, phosphate buffer): 9.03E+01; Average Area Ratio Normalized (GSH reactivity assay; 1.5 h): 7.98E+00; half-life at 20 μM (GSH reactivity assay; [5]): > 360 min; remaining at 1.5 h, 20 μM (GSH reactivity assay; [6]): 90%; IC50 (PEO23): 0.297 µM |
| N#Cc1ccc(/C=C2/C(=O)/C(=C/c3ccc(C#N)cc3)C23CCNCC3)cc1 [Up284, reference compound] | 1.15E+02 and 1.32E+02 and 1.44E+02 | 2.158 | 0.065 | 0.071 | 0.043 | 0.09 | ≤ 30 | 1.00E+02 | 1.00E+02 | 8.68E+01 | 10 | 12.2 | 1.76E+01 | 1.03E+02 | 1.48E+01 | 1.18E+01 | 1.13E+02 | 9.11E+00 | 1.20E+01 | 1.18E+02 | logD ([1]; n-octanol/PBS, pH 7.4, mean of three injections): 2.12; logD ([1]; n-octanol/PBS, pH 7.4, single injections 1-3): 2.06; IC50 (PEA2; PEA2, 72 h, MTT, read-out: IC50): 0.144 µM; Average Area Ratio Normalized (GSH reactivity assay; 1 h): 8.78E+00; Average Area Ratio with GSH (GSH reactivity assay; 1.5 h, 1 mM GSH): 1.30E+01; Average Area Ratio without GSH (GSH reactivity assay; 1.5 h, phosphate buffer): 1.18E+02; Average Area Ratio Normalized (GSH reactivity assay; 1.5 h): 9.58E+00; half-life at 20 μM (GSH reactivity assay; [5]): > 360 min; remaining at 1.5 h, 20 μM (GSH reactivity assay; [6]): 118%; IC50 (PEO23): 0.112 µM |
